Laboratory results reported in paper PMC7532004, “Site-specific effects of neurosteroids on GABAA receptor activation and desensitization” (eLife, 2020).

Molecular target: T1, α1β3 GABAAR (α1His-FLAGβ3) (Homo sapiens, UniProt P14867+P28472)
T1 construct: inserted between the fourth and fifth residues of the mature peptide; photolabeling full-length heteropentameric GABAARs in native membranes; expressed in transfected cells
T1 sequence (P14867 28-456): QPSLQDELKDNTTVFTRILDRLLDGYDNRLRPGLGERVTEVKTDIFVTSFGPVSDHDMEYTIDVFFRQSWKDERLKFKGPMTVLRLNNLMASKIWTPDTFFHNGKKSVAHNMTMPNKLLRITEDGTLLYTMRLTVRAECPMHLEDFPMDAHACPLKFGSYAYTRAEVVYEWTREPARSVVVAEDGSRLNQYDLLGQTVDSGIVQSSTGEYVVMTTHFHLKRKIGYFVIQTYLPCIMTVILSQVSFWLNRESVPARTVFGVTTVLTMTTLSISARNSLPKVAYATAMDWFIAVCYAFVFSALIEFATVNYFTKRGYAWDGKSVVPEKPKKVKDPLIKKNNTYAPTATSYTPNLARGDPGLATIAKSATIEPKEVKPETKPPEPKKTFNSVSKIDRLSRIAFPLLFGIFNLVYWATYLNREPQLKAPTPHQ
T1 sequence (P28472 26-473): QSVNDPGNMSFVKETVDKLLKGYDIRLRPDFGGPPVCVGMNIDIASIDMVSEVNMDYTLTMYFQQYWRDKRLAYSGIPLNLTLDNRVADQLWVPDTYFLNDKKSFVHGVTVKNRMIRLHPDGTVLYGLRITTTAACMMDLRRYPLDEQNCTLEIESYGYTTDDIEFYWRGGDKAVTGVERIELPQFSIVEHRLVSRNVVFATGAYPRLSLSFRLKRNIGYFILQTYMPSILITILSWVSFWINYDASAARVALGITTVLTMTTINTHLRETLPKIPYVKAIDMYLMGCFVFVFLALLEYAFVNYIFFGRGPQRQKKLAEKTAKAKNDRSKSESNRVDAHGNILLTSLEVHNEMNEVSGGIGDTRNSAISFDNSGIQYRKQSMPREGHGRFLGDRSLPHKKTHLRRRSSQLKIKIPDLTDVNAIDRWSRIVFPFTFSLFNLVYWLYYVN
Test: Neurosteroid photolabeling and competition, middle-down mass spectrometry
Format: binding
Settings: for Prevention of KK200 photolabeling of α1N408 in the α1 intrasubunit site / Prevention of KK200 photolabeling of β3G308 in the intersubunit site: 3 μM KK200; for Photolabeling efficiency of α1 subunit TM4 (Y415, α1 intrasubunit site) / Photolabeling efficiency of β3 subunit TM4 peptide (β3 intrasubunit site): 30 μM photolabeling reagent
Procedure: The syntheses of neurosteroid photolabeling reagents (KK148, KK150, KK200, KK123) are detailed in previous reports ([Jiang et al., 2016]; [Cheng et al., 2018]). […] For the photolabeling competition experiments, 3 μM KK200 or KK123 in the presence of 30 μM competitor (3α5αP, KK148, KK150, and 3β5αP) or the same volume of ethanol was added to the membrane proteins and incubated on ice for 1 hr. The samples were then irradiated in a quartz cuvette for 5 min, by using a photoreactor emitting light at >320 nm. The membrane proteins were then collected by centrifugation at 20,000 g at 4°C for 45 min. The photolabeled membrane proteins were resuspended in lysis buffer containing 1% n-dodecyl-β-D-maltoside (DDM), 0.25% cholesteryl hemisuccinate (CHS), 50 mM Tris (pH 7.5), 150 mM NaCl, 2 mM CaCl2, 5 mM KCl, 5 mM MgCl2, 1 mM EDTA, 10% glycerol at a final concentration of 1 mg/ml. The membrane protein suspension was homogenized using a glass mortar and a Teflon pestle and incubated at 4°C overnight. The protein lysate was centrifuged at 20,000 g at 4°C for 45 min and supernatant was incubated with 0.5 ml anti-FLAG agarose (Sigma) at 4°C for 2 hr. The anti-FLAG agarose was then transferred to an empty column, followed by washing with 20 ml washing buffer (50 mM triethylammonium bicarbonate and 0.05% DDM). The GABAARs were eluted with aliquots of 200 μg/ml FLAG tag peptide and 100 μg/ml 3X FLAG (ApexBio) in the washing buffer. The pooled eluates (9 ml) containing GABAARs were concentrated to 100 μl using 100 kDa cut-off centrifugal filters.
The purified α1β3 GABAAR (100 μl) was reduced with 5 mM tris(2-carboxyethyl)phosphine for 1 hr, alkylated with 5 mM N-ethylmaleimide (NEM) for 1 hr, and quenched with 5 mM dithiothreitol (DTT) for 15 min. These three steps were done at RT. Samples were then digested with 8 μg of trypsin for 7 days at 4°C to obtain maximal recovery of TMD peptides. The digestions were terminated by adding formic acid in a final concentration of 1%, followed directly by LC-MS analysis on an Orbitrap Elite mass spectrometer. 20 μl samples were injected into a home-packed PLRP-S (Agilent, Santa Clara, CA) column (10 cm ×75 μm, 300 Å), separated with a 145 min gradient from 10% to 90% acetonitrile, and introduced to the mass spectrometer at 800 nl/min with a nanospray source. MS acquisition was set as a MS1 Orbitrap scan (resolution of 60,000) followed by top 20 MS2 Orbitrap scans (resolution of 15,000) using data-dependent acquisition, and exclusion of singly charged precursors. Fragmentation was performed using high-energy dissociation with normalized energy of 35%. Analysis of data sets was performed using Xcalibur (Thermo Fisher Scientific) to manually search for TM1, TM2, TM3 or TM4 tryptic peptides with or without neurosteroid photolabeling modifications. Photolabeling efficiency was estimated by generating extracted chromatograms of unlabeled and labeled peptides, determining the area under the curve, and calculating the abundance of labeled peptide/(unlabeled + labeled peptide). Analysis of statistical significance comparing the photolabeling efficiency of KK200 and KK123 for α1β3 GABAAR was determined using one-way ANOVA with Bonferroni's multiple comparisons test and paired t-test, respectively (Prism 6, GraphPad Software, San Diego, CA). MS2 spectra of photolabeled TMD peptides were analyzed by manual assignment of fragment ions with and without photolabeling modification. Fragment ions were accepted based on the presence of a monoisotopic mass within 20 ppm mass accuracy. In addition to manual analysis, PEAKS (Bioinformatics Solutions Inc, Waterloo, ON, Canada) database searches were performed for data sets of photolabeled α1β3 GABAAR. […]

| Structure (SMILES) | Prevention of KK200 photolabeling of α1N408 in the α1 intrasubunit site (30 μM competitor) | Prevention of KK200 photolabeling of β3G308 in the intersubunit site (30 μM competitor) | Inhibition of KK123 photolabeling at the α1 (α1Y415) and β3 (β3Y442) intrasubunit sites (30 μM competitor, 3 μM KK123) | Photolabeling efficiency of α1 subunit TM4 (Y415, α1 intrasubunit site) | Photolabeling efficiency of β3 subunit TM4 peptide (β3 intrasubunit site) |
| --- | --- | --- | --- | --- | --- |
| CC(=O)[C@H]1CC[C@H]2[C@@H]3CC[C@H]4C[C@H](O)CC[C@]4(C)[C@H]3CC[C@]12C [3α5αP, allopregnanolone] | prevented | prevented | – | – | – |
| CC(=O)[C@H]1CC[C@H]2[C@@H]3CC[C@H]4C[C@@H](O)CC[C@]4(C)[C@H]3CC[C@]12C [3β5αP, epi-allopregnanolone] | prevented | does not bind to the intersubunit site | completely inhibited | – | – |
| C#CCCO[C@H]1CC[C@H]2[C@@H]3CC[C@H]4CC5(CC[C@]4(C)[C@H]3CC[C@]12C)N=N5 [KK148] | prevented | prevented | – | 0.77% | 0.13% |
| C#CCCO[C@@H]1CC[C@H]2[C@@H]3CC[C@H]4CC5(CC[C@]4(C)[C@H]3CC[C@]12C)N=N5 [KK150] | prevented | prevented | – | 0.62% | 0.19% |
